Laboratory results: patent US20230270738A1, “METHODS OF TREATING AGITATION ASSOCIATED WITH ALZHEIMER'S DISEASE” (Avanir Phrmaceuticals Inc., priority 2020, published 2023)
Entries after “also recorded” stand apart in the source; their conditions may differ. Where a name gives a salt, the structure may show the parent alone.

Tests used:
[1] = Plasma concentrations of d6-DM, d6-DM metabolites and Q by CYP2D6 metabolizer group; assay type: in vivo, human; conditions: for Plasma concentration/exposure in relation to d6-DM dose of AVP-786: AVP-786-28 vs AVP-786-42.63; for Changes in plasma concentrations from Week 6 to Week 12: all patients combined, sample 0-3 hours after morning dose; for Plasma concentration by CYP2D6 metabolizer group: poor, intermediate, extensive, ultra-rapid metabolizers
Procedure: Plasma samples were separated by centrifugation and frozen at −20° C. until assayed at the analytical unit.

sigma-1 receptor = sigma-1 receptor (Homo sapiens, UniProt Q99720); conditions: cited from earlier work
P-glycoprotein = P-glycoprotein (Homo sapiens, UniProt P08183); conditions: cited from earlier work
Chain of P-glycoprotein (P08183 whole entry): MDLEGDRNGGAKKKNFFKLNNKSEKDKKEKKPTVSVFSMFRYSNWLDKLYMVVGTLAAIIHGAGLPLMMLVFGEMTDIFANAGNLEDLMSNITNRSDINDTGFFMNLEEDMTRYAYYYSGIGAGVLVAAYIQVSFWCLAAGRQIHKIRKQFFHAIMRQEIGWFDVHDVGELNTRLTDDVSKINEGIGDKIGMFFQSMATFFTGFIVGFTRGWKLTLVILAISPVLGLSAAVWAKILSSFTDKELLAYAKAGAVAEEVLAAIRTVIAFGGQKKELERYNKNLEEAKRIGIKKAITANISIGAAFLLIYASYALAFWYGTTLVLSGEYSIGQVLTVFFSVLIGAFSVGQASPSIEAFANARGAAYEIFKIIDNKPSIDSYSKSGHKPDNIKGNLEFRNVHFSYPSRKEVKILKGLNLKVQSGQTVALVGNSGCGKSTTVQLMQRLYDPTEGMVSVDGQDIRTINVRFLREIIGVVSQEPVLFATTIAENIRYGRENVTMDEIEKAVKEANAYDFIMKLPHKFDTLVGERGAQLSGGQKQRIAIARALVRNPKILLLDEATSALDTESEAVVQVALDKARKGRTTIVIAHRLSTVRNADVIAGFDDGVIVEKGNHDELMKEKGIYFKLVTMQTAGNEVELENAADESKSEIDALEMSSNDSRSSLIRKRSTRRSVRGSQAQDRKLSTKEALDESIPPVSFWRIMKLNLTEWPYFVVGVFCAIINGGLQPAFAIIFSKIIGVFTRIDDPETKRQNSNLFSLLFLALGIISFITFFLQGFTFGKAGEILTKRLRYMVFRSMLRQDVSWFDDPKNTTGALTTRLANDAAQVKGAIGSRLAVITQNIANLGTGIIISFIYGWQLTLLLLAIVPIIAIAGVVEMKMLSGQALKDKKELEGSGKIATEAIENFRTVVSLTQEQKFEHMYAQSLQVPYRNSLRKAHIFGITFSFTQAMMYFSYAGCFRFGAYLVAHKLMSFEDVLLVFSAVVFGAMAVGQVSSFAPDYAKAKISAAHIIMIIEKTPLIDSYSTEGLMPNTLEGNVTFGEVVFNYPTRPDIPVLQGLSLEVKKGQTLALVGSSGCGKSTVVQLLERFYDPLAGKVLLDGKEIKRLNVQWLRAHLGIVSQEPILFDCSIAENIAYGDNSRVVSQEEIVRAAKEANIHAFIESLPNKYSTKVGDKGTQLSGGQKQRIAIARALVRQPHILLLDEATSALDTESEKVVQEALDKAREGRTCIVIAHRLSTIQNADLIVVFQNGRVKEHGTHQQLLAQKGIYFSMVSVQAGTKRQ

Chain of sigma-1 receptor (Q99720 whole entry, species assumed): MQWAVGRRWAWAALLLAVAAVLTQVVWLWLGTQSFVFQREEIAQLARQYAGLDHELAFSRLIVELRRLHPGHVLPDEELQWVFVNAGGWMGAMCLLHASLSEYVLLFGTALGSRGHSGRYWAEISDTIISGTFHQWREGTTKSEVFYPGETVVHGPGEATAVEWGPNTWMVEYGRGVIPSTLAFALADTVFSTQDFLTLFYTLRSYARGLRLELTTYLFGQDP

Compound | Plasma concentration/exposure in relation to d6-DM dose of AVP-786 ([1]; hydrobromide) | Changes in plasma concentrations from Week 6 to Week 12 [1] | Plasma concentration by CYP2D6 metabolizer group [1] | receptor binding (sigma-1 receptor) | P-glycoprotein inhibition (P-glycoprotein) | Plasma concentration/exposure in relation to d6-DM dose of AVP-786 [1]
[2H]C([2H])([2H])Oc1ccc2c(c1)[C@]13CCCC[C@@H]1[C@H](C2)N(C([2H])([2H])[2H])CC3 [d6-DM, deuterated [d6]-dextromethorphan hydrobromide] | generally higher; also recorded: increased with the increase in d6-DM dose | did not appear to be any significant changes | highest in the poor and intermediate metabolizer groups and lowest in the ultra-rapid metabolizer group | binds to the sigma-1 receptor |  | 
[2H]C([2H])([2H])Oc1ccc2c(c1)C13CCCCC1C(C2)NCC3 (centres unmarked) [d3-3-MM, d3-3-methoxymorphinan] |  | did not appear to be any significant changes | highest in the poor and intermediate metabolizer groups and lowest in the ultra-rapid metabolizer group |  |  | 
C=C[C@H]1C[N@]2CC[C@@H]1C[C@@H]2[C@@H](O)c1ccnc2ccc(OC)cc12 [Quinidine, quinidine sulfate] |  |  |  |  | P-glycoprotein inhibitor | 
[2H]C([2H])([2H])N1CCC23CCCCC2C1Cc1ccc(O)cc13 (centres unmarked) [d3-DX, d3-dextrorphan] |  | did not appear to be any significant changes | lowest in the poor metabolizer group and highest in the extensive and ultra-rapid metabolizer groups |  |  | generally higher; also recorded: increased with the increase in d6-DM dose
C=C[C@H]1C[N@@]2CC[C@H]1C[C@@H]2[C@@H](O)c1ccnc2ccc(OC)cc12 [Q, Quinidine, reference compound] |  | did not appear to be any significant changes |  |  |  | 
